Measurements from US20240285594A1, “COMPOSITIONS AND METHODS FOR TREATING PAIN IN ANIMALS” (North Carolina State University, priority 2023, published 2024).
“Also recorded” adds a separate entry of the source. Where two headings read alike, the source gives them in different places.

Legend:
[1] = cited from earlier work
[2] = UPAPS behavioral pain scoring and rescue analgesia after castration (Part II); assay type: in vivo, piglets; details: -1 h, 0 h and +3 h relative to castration; compared to C (saline); listed as FM
Experimental: Behavior scoring was obtained in real-time by observing each piglet for 4-min continuously using Unesp-Botucatu pig acute pain scale (UPAPS). Each piglet was scored by one trained observer at the following timepoints: 1 h before castration (−1 h), immediately post-castration (0 h), and 3 h post-castration (+3 h, FIG. 3). The 4-min sampling time was obtained from the methodology previously validated. Treatments were masked, randomized, and applied to each piglet by a senior researcher. The Unesp-Botucatu UPAPS scale evaluates five behavioral items, with each item divided into four descriptive levels. A numerical score was designated from “0” to “3”, with a “0” representing normal behavior (free of pain) and “3” corresponding to pronounced behavioral deviation (severe pain). Therefore, for each timepoint, piglets may receive a score ranging from 0 (min) to 15 (max; Table 3). Total pain scores were then calculated for each piglet per timepoint. […] This is most referred to rescue analgesia in the literature; and was conducted for each behavioral assessment. Total counts were calculated for piglets identified as requiring or not requiring rescue analgesia by treatment and timepoint. […]

[3] = IM flunixin in pigs; cited from earlier work
[4] = tested on: cortisol; assay: Serum cortisol after surgical or sham castration of piglets (Part I, physiological assessment); assay type: in vivo
Experimental: A total of 197 Large White×Duroc cross male piglets from 35 litters were enrolled in the study (Table 1). Piglets were individually identified using ear tags (Allflex Global Piglet ear tags, Allflex Livestock Intelligence, Madison, WI), weighed and randomly allocated to one of eight treatment groups (FIG. 1).
Lidocaine was buffered by mixing 2 ml of 8.4% Sodium Bicarbonate to 20 ml of 2% lidocaine HCl injectable solution to achieve a pH of 6.8 (Lidocaine Hydrochloride, Covetrus, Dublin, Ohio, US). […] Piglets were held by both rear legs by one caretaker with the abdomen facing the individual administrating treatment. Buffered lidocaine was injected intra-inguinally (Picture 1) by a second caretaker using a ½ inch needle (Ideal® D3 20 Gauge, Neogen, Lansing, MI) inserted into a syringe (Prima Tech® 2 cc Bottle Mount Vaccinator, Prima Tech USA, Kenansville, NC). A total of 1.5 ml of buffered lidocaine per injection site was administered intramuscularly (IM) into each inguinal canal (left and right) at a 40-degree angle 5-7 cm from the scrotum and 2-3 cm from the abdominal wall. Piglets enrolled in the control treatment (C, S, CF, SF−T1: (C) Castration plus physiological saline (IM and IN; n=25); T2: (S) Sham plus physiological saline (IM and IN; n=25); T5: (CF) Castration plus flunixin (IN; n=25); T6: (SF) Sham plus flunixin (IN; n=24)) were handled in an identical manner and 1.5 ml of sterile saline was injected in the same two locations as described previously.
Immediately following intra-inguinal injection, piglets enrolled in the FM treatment groups were held in sternal recumbency by one individual and 2.2 mg/kg (Banamine®, Merck Animal Health, Madison, NJ, US) was administered in one nostril using was a MAD® nasal intranasal mucosal atomization device (Telefex Incorporated, Wayne, PA, US) attached to a Prima Tech® 0.5 cc bottle mount vaccinator. The same individual administered the treatment by gently holding the piglet's snout using their non-dominant hand to steady the head and administered the drug with the other hand. Piglets in the control group were handled in the same manner in an equivalent volume of 0.2 ml of sterile saline was administered as described above.
Castration was performed by one trained caretaker from the farm. Piglets were picked up, individually held by both hind legs with head down, and two vertical incisions were made through the skin of the scrotum over each testicle using a scalpel blade. Once the incisions were made, testicles were exposed, spermatic cords cut, and testicles were completely removed by traction. A sham castration was performed to mimic similar handling conditions in which piglets were picked up, held in the same manner, and had pressure applied to the scrotal area by the same individual responsible for castration.
Blood was collected 24 h prior to (−24 h), 1 h (1 h), and 24 h post castration (24 h, FIG. 2). Blood samples were collected using the technique described in other studies. The orbital sinus cavity was punctured using an Excel® disposable hypodermic needle 20G (Exel International, Quebec, Canada) and deposited into a 4 ml BD® red vacutainer serum tube (Med Vet International, Mettawa, IL). All tubes were maintained in a cooler and centrifuged (2,000×g for 15 min at 4° C.) no more than eight hours post-collection to separate serum. […]
Serum cortisol concentrations were quantified using a commercially available EIA kit (Arbor Assays DetectX Cortisol EIA Kit, Product #K003). […]

[5] = in vivo; details: female, Yorkshire cross, pig, plasma, 2.2 mg/kg
Experimental: (§1) Six female Yorkshire cross grower pigs approximately 8 weeks of age with no history of flunixin administration in a 30-day period were sourced from a production farm and enrolled in the study. The pigs were determined to be healthy by veterinary physical examination and pigs initially weighed between 18.0-22.0 kg. The pigs were individually housed in climate-controlled rooms with a 12:12 light dark cycle at the North Carolina State University College of Veterinary Medicine to prevent cross contamination between pigs and damage to jugular catheters. The pens had non-slip flooring, allowed the pigs to move freely, provided enrichment, and were cleaned at least twice daily. The pigs had ad libitum access to water via a nipple drinker and were fed 0.5 quarts of Nature's Match twice daily. […] From the time of arrival until the end of the study, the pigs were monitored at least twice daily for general appearance, attitude, appetite, and wellbeing.
(§2) To facilitate jugular catheter placement, the pigs were sedated with Telazol®, reconstituted with ketamine and xylazine as previously described, intubated, and maintained on gas isoflurane anesthesia. A 22-gauge, 10 cm intravenous catheter (MILA, International, Inc., Florence, KY, USA) was placed into the jugular vein using sterile technique. It was sutured in place with 3-0 nylon and covered in Ioban™ (3M, St. Paul, MN, USA) to prevent damage. The pigs wore custom jackets throughout the study to protect the catheters and an extension set was attached to allow for easy catheter access and restraint-free blood collection.
(§3) All pigs were randomized to determine the first administration route. Group 1 (n=3 pigs) and Group 2 (n=3 pigs) were used in a cross-over design and received 2.2 mg/kg flunixin (Banamine®-S, Merck Animal Health, Madison, NJ, USA) by either the IM or IN route. Following a 5-day washout period, the pigs were administered 2.2 mg/kg flunixin via the opposite route. IN administration was completed using a MAD600 MADgic laryngo-tracheal mucosal atomization device (Teleflex Medical, Morrisville, NC, USA). The luer lock syringe was attached to this device and drug was placed into the nostril. Before administration, 0.22 mL of the drug was added to the device to account for dead space volume. After the IN dose, pigs were encouraged to keep their heads raised for approximately 10 seconds to prevent leakage of the drug out of the nasal cavity. Intramuscular administration was performed in the omotransversarius muscle using a 20G needle.
(§4) Blood samples were collected at 0 (pre-treatment), 0.16, 0.33, 0.5, 0.75, 1, 1.5, 2, 3, 4, 6, 8, 12, 18, 24, 36, 48, and 60 hours post treatment. To avoid heparin contamination in samples, at least 1 mL of blood was collected as a purge sample before 1-2 mL of blood was collected and placed into lithium heparin tubes (BD Vacutainer, Franklin Lakes, NJ, USA). The purge blood was injected back into the catheter before the catheter was flushed with 3-4 mL of heparinized saline to prevent coagulation. The blood tubes were placed on ice for no more than 1 hour before they were processed. Plasma was separated by centrifugation at 3500×g for 10 minutes at 4° C., equally split between two cryovials, mixed, and stored at −80° C. until analysis.
(§5) To prepare samples, 100 μL of plasma was pipetted into a clean borosilicate glass tube (disposable culture tubes, CWR). To pretreat the plasma, 500 μL of 4% phosphoric acid prepared in water was added to each tube. Solid phase extraction was performed on an oasis prime HLB 96 well μElution plate (Waters Corporation, Milford, MA, USA). The plate was prepared by conditioning the plate with 500 μL of methanol followed by 500 μL of ultrapure water.

[6] = female, Yorkshire cross, pig, in vivo, 2.2 mg/kg
Experimental: as §1, §2, §3, §4, §5

[7] = IV administration 2.2 mg/kg, piglets, Kittrell et al. (2020)
[8] = PO administration 3.3 mg/kg, piglets, Kittrell et al. (2020)
[9] = TD administration 3.3 mg/kg, piglets, Kittrell et al. (2020)
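For F in this document: grower pigs about 8 weeks old weighing 18.0-22.0 kg, randomized cross-over of both routes separated by a 5-day washout, blood taken via jugular vein catheter.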
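For time flunixin was detectable in plasma post-administration in this document: grower pigs about 8 weeks old weighing 18.0-22.0 kg, randomized cross-over of both routes separated by a 5-day washout, blood taken via jugular vein catheter.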

Cc1c(Nc2ncccc2C(=O)O)cccc1C(F)(F)F [flunixin meglumine]
half-life [1, 7]: 7.06 h
maximum observed drug concentration [1, 7]: 12.03 µg/mL
Cmax [1, 8]: 4990 ng/mL
Tmax [1, 8]: 55.8 min
half-life [1, 8]: 11.38 h
Cmax [1, 9]: 40 ng/mL
Tmax [1, 9]: 1350 min
half-life [1, 9]: 38.89 h
bioavailability ([1]; transdermal formulation, pigs): low bioavailability
blood concentrations ([1]; transdermal formulation, swine, Kittrell et al. (2020)): low blood concentrations
total UPAPS scores [2]: did not decrease; also recorded: behavioral differences were not noted
label withdrawal time [3]: 12 days
cortisol concentrations ([4]; 1 h, sham castrated piglets (SF and SLF)): lowest cortisol concentrations
cortisol concentrations ([4]; 1 h post-castration, castrated piglets, compared to C (saline) and CL, FM 2.2 mg/kg intranasal, buffered lidocaine intra-inguinal, listed as FM): lower cortisol concentrations; also recorded: decreased cortisol concentrations; also recorded: effectively reduce
cortisol concentrations ([4]; 24 h post-castration, between treatments): not effective
AUC(0-inf) ([5]; im): 6900 ng·h/mL
AUC(0-t) ([5]; im): 6900 ng·h/mL
CL/F ([5]; im): 5 mL/min/kg
Cmax ([5]; im): 4000 ng/mL
Tmax ([5]; im): 12 min
Vd/F ([5]; im): 3.2 L/kg
AUC(0-t) ([5]; inhaled or intranasal): 4800 ng·h/mL
CL/F ([5]; inhaled or intranasal): 8.33 mL/min/kg
Cmax ([5]; inhaled or intranasal): 2700 ng/mL
Tmax ([5]; inhaled or intranasal): 12 min
Vd/F ([5]; inhaled or intranasal): 5.4 L/kg
bioavailability ([5]; other: intranasal): 88.5%
time flunixin was detectable in plasma post-administration [6]: up to 60 hours
